Values of other authors in US7674824B2, “Stable oxaliplatin formulation” (Fresenius Kabi Oncology Limited, priority 2006, dated 2010).

Details: 0.9% sodium chloride solution

O=C1[O][Pt]2([NH][C@@H]3CCCC[C@H]3[NH]2)[O]C1=O [oxaliplatin]
Stability after reconstitution in chloride-containing solution (in words): rapidly decomposing
